{
  "source": "paper PMC12189828",
  "about": "“Substitution of Proline Residues by 4-Fluoro-L-Proline Affects the Mechanism of the Proline-Rich Antimicrobial Peptide Api137” (Antibiotics, 2025)",
  "key": {"E. coli RN31 [1]": {"test_system": "E. coli RN31", "test": "Minimum inhibitory concentration (MIC) against E. coli RN31", "assay_type": "cell-based, Escherichia coli", "conditions": "E. coli RN31, 33% TSB, 37 °C overnight (~16 h), 7.5 × 10^6 bacteria/mL; two independent experiments with two replicates each (n = 4)", "experimental": "Minimum inhibitory concentrations were determined for E. coli RN31 grown in 33% TSB (37 °C, 200 rpm) with a starting OD600 of 0.05. After four hours, the cell count was adjusted to 1.5 × 10^7 bacteria/mL. In a transparent 96-well plate, the peptides were diluted in a two-fold dilution series in 33% TSB over 10 dilution steps, and E. coli was added to obtain a final cell count of 7.5 × 10^6 bacteria/mL and incubated at 37 °C overnight. OD600 was determined using a PARADIGM^TM microplate reader (Beckman Coulter, Salzburg, Austria) before and after cultivation. The MIC was defined as the lowest peptide concentration preventing visible bacterial growth."}, "E. coli RN31 [2]": {"test_system": "E. coli RN31", "test": "Growth inhibition of E. coli RN31 during 90 min exponential growth phase", "assay_type": "cell-based, Escherichia coli", "conditions": "E. coli RN31, 33% TSB, peptide 8 µg/mL, 90 min, OD600; two biological replicates (n = 2)"}, "[3]": {"target": "70S ribosomes isolated from E. coli BW25113 (Escherichia coli, UniProt P60723+P61175)", "test": "Fluorescence polarization, competition with cf-Api137 for 70S ribosome binding (Ki)", "conditions": "crude 70S ribosome extract, fluorescence polarization, 28 °C, 90 min + 90 min; two independent experiments with two replicates each (n = 4); Table 2", "experimental": "E. coli BW25113 were cultivated in LB medium and harvested by centrifugation (5000× g, 15 min, 4 °C) at an OD600 of 3–4. Cell pellets were washed in ribosome preparation buffer (20 mmol/L HEPES-KOH, 6 mmol/L MgCl2, 30 mmol/L NH4Cl, pH 7.6, 4 °C), centrifuged (4100× g, 30 min, 4 °C), and resuspended in ribosome preparation buffer (0.5 g/L) containing freshly added 2-mercaptoethanol (4 mmol/L) and lysozyme. Cells were incubated on ice for 30 min and disrupted in six cycles using a FastPrep-24^TM 5G instrument (MP Biomedicals, Eschwege, Germany) with the BigPrep 50 mL setting (40 s, 4.0 m/s), interrupted by one minute of incubation on ice between the cycles. After a centrifugation step (1620× g, 5 min, 4 °C), DNase I (5 U/mL) was added to the supernatant and incubated for 1 h on ice. Cell debris was removed by centrifugation at 16,000× g (30 min, 4 °C) and twice at 32,000× g (60 min, 4 °C). Crude ribosomes were obtained by centrifugation at 165,000× g (17 h, 4 °C). […]\nInhibition constants (Ki) were measured for the 70S ribosome extract using cf-labeled and unlabeled peptides in ribosome preparation buffer. […] Fluorescence polarization was determined on a PARADIGM^TM microplate reader in the top reading position (λex = 485 nm, λem = 535 nm). […] Ki values were calculated as described by Mathias and Jung."}, "eukaryotic cell lines": {"test_system": "eukaryotic cell lines", "conditions": "cited from earlier work"}, "mice": {"test_system": "mice", "conditions": "cited from earlier work"}, "[4]": {"test_system": "in vitro expression of sfGFP in the presence of RF1", "test": "In vitro transcription-translation (iTT) assay of sfGFP in the presence of RF1", "assay_type": "biochemical", "conditions": "peptide 5 µmol/L, RF1, 37 °C, 2 h, fluorescence; normalized to absence of PrAMPs; n = 3", "summary_of_the_method": "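Cell-free PURExpress ΔRF123 system was supplemented with 50-fold-diluted RF1 and a sfGFP template ending in a UAG stop codon (35 ng, 0.1325 pmol). PrAMP was added from a 50 or 0 µmol/L aqueous solution. Reactions ran at 37 °C for 2 h, with fluorescence (ex 485/em 535 nm) read every 10 min.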"}},
  "note": "“And” between values parts separate entries of the source, which are not always exact repeats. Equal values may be shown once. Where a SMILES comes first, the peptide text is derived from it. The star is where a group is joined. Orn(α-tetramethylguanidino) = CN(C)C(=N[C@@H](CCCN)C(=O)*)N(C)C",
  "data": [
    {"smiles": "CC[C@H](C)[C@H](NC(=O)[C@H](Cc1ccc(O)cc1)NC(=O)[C@@H](NC(=O)[C@@H]1CCCN1C(=O)[C@H](CCCNC(=N)N)NC(=O)[C@H](CC(N)=O)NC(=O)[C@H](CC(N)=O)NC(=O)[C@H](CCCN)N=C(N(C)C)N(C)C)C(C)C)C(=O)N1CCC[C@H]1C(=O)N[C@@H](CCCNC(=N)N)C(=O)N1CCC[C@H]1C(=O)N[C@@H](CCCNC(=N)N)C(=O)N1CCC[C@H]1C(=O)N1CCC[C@H]1C(=O)N[C@@H](Cc1c[nH]cn1)C(=O)N1CCC[C@H]1C(=O)N[C@@H](CCCNC(=N)N)C(=O)N[C@@H](CC(C)C)C(=O)O", "note": "[Api137] ({Orn(α-tetramethylguanidino)}-NNRPVYIPRPRPPHPRL-OH; N-terminus and C-terminus assumed)", "values": [
      {"measurement": "MIC", "setting": "E. coli RN31 [1]", "result": 4, "unit": "µg/mL"},
      {"measurement": "reduction of bacterial growth vs untreated control", "setting": "E. coli RN31 [2]", "result": 70, "unit": "%"},
      {"measurement": "Ki", "setting": "[3]", "result": "2.6 ± 0.2", "unit": "nM"},
      {"measurement": "cytotoxicity to eukaryotic cell lines", "setting": "eukaryotic cell lines", "result": "virtually non-toxic"},
      {"measurement": "tolerability in mice", "setting": "mice", "result": "well tolerated"},
      {"measurement": "Residual iTT (sfGFP expression relative to no PrAMP)", "setting": "[4]", "result": "22% and 22 ± 6.2%"}
    ]}
  ]
}
